Source: patent publication US4957864A, “Novel plasminogen activator and its preparation process” (Mitsui Toatsu Chemicals, Incorporated, priority 1982, dated 1990)
Read-outs that look alike come from different tables or passages of the source.

Tests used:
[1] = tested on: antivascular plasminogen activator serum; assay: double immunodiffusion with antivascular plasminogen activator and anti-urokinase serums; assay type: binding
Text: Using the antivascular plasminogen activator and anti-urokinase serums, the antigenicities of the both activators were studied in accordance with the double immunodiffusion method. As a result, both urokinase and the vascular plasminogen activator developed individually a single precipitation curve between themselves and their corresponding anti-urokinase or antivascular plasminogen activator serum.
In order to study whether the activators obtained respectively from kidney tissue and the wall of a blood vessel have the same antigenicity as urokinase, the elution profile of proteins and active ingredient of the activator obtained by the antiurokinase IgG-Sepharose affinity chromatographic treatment of the purified activator of Example 1-(6) and the activator of Example 1-(3) was compared with the elution profile of urokinase. […] The protein contained in the effluents was serum albumine incorporated in the commercially available urokinase used in this experiment. […] When the partially-purified sample obtained in Example 1-(3) was poured in the same column, about 15% of the poured activity was adsorbed on the column and eluted with the glycine solution of pH 2.4. […]

fibrin [2] = assay: fibrinolytic activity by the fibrin-agar plate method, compared with urokinase (UKIU); assay type: biochemical
Method: The fibrinolytic activity of the tissue activator was compared with that of urokinase and was expressed in terms of the international unit (UKIU). […] The activity of the tissue activator was determined by measuring the lytic areas of diluted samples within the range of 120-200 mm^2. […] The enzymatic activity of the tissue activator was standardized by the enzymatic activity of urokinase and the percentage recovery of the tissue activator and its specific activity relative to UKIU/ml were measured after each of several purification stages.
The non-specific fibrin-resolving activity was measured on a fibrin-agar plate free of plasminogen.

[3] = isoelectric point by polyacrylamide gel isoelectric-point electrophoresis; assay type: physicochemical; settings: 7.5% polyacrylamide gel, 8M urea, 1% ampholite
Method: The measurement of the isoelectric point of the purified tissue activator was carried out in a 7.5% polyacrylamide gel containing 8M urea and 1% ampholite in accordance with the method proposed by Mertz et al. [Biochem. Biophys. Res. Commun. 49, 84-91 (1972)]. The sample was solubilized in an 8M urea solution containing 2 mM EDTA and 1% ampholite. Its pH was determined by the method proposed by Finlayson et al. [Anal. Biochem. 40, 292-311 (1971)].

anti-urokinase IgG = assay: affinity chromatography on anti-urokinase IgG-Sepharose column; assay type: binding, goat
Text: The employed urokinase sample was identical to that analyzed in accordance with the SDS-polyacrylamide gel electrophoresis.
The gel was washed with a 0.02M Tris-HCl solution of pH 7.4 containing 1.0M NaCl at least 20 times in volume that of the gel.

[4] = target: tissue activator obtained from human kidney (Homo sapiens, UniProt P00750); assay: biochemical; assay type: biochemical
[5] = target: T1, vascular plasminogen activator (Homo sapiens, UniProt P00750); assay: biochemical
T1 construct: from tissue; host or cells: blood vessel wall

[6] = tested on: insolubilized fibrin monomer; assay: adsorption onto fibrin-Sepharose column; assay type: binding, human
[7] = hydrolytic activity against chromogenic substrate S-2288; assay type: biochemical; settings: activator 100 UKIU/ml; 37° C., 405 nm
Method: (§1) The initial release of 7-amino-4-methylcoumarine (AMC) was measured by a fluorometer at 37° C. in a Shimadzu Fluorospectrophotometer Model RF-520. The fluorometer had been set in such a manner that a radiation of a fluorescent light of 380 nm permitted to emit an excited fluorescent light of 460 nm, and also so adjusted that a 0.1% DMSO solution containing […] gave a relative fluorescent unit of 1.0. The hydrolytic activity of the purified tissue activator was measured using a chromogenic substrate, by adding 200 μl of a tissue activator sample, 200 μl of a 0.1M Tris-HCl solution of pH 8.0 containing 0.1M NaCl and 0.02% Tween 80, and 200 μl of a 3 mM S-2251 solution or a 1 mM S-2288 solution. The initial release of p-nitroaniline was measured by a spectrophotometer at 405 nm and 37° C. in a glass cell. The initial velocity of the hydrolytic activity was expressed in terms of ΔmA/min for the chromogenic substrate and Δ%/min for the fluorescent substrate.
For tissue plasminogen activator, H-D-isoleucyl-L-prolyl-L-arginine-p-nitroanilide dihydrochloride (S-2288).

[8] = hydrolytic activity against chromogenic substrate S-2251; assay type: biochemical; settings: activator 100 UKIU/ml; 37° C., 405 nm
Method: as §1
For plasmin, H-D-valyl-L-leucyl-L-lysine-p-nitroanilide dihydrochloride (S-2251);

[9] = storage and pH stability of activity in buffer solution; assay type: physicochemical
Method: The same result was obtained even when 1M NH4 SCN or 0.02% Tween 80 and 0.1M NaCl were incorporated in the buffer solution.
The stability of the plasminogen activator of the present invention was investigated in the pH
hours in a buffer solution range of 1-10 at 4° C. for 24 containing 0.5M NaCl and 0.02% Tween 80.

[10] = hydrolytic activity against fluorescent 4-methylcoumaryl-7-amide substrates; assay type: biochemical; settings: 3093-V, 3095-V, 3096-V, 3097-V
Method: The thus-purified tissue activator was tested with various fluorescent substrates by adding 50 μl of the tissue activator sample in a 0.02M Tris-HCl solution of pH 8.0 containing 0.1M NaCl and 0.02% Tween 80 and 2.0 ml of the substrate in the same buffer solution. The following materials were used as the fluorescent substrates:
Boc-L-valyl-L-prolyl-L-arginine-4-methyl-coumaryl-7-amide;
Carbobenzoxy-L-phenylalanyl-L-arginine 4-methylcoumaryl-7-amide;
L-prolyl-L-phenylalanyl-L-arginine-4-methylcoumaryl-7-amide; and
Glutaryl-glycyl-L-arginine-4-methylcoumaryl-7-amide.
as §1, with “The initial velocity of the hydrolytic activity was expressed in terms of ΔmA/min for the chromogenic substrate and Δ%/min for the fluorescent substrate.” left out

fibrin [11] = settings: M.W. 33,000 urokinase sample; cited from earlier work
[12] = Aprotinin 50 KIU/ml, iodoacetamide 10 mM, soybean trypsin 50 mg/ml, L-arginine 100 mM, diisopropyl fluorophosphate 5 mM, 37° C., 1 hour
[13] = diisopropyl fluorophosphate 5 mM, L-arginine 0.1M, Trasylol 50 KIU/ml, iodoacetamide 10 mM, soybean trypsin inhibitor 50 μg/ml

T1 sequence (P00750 36-562): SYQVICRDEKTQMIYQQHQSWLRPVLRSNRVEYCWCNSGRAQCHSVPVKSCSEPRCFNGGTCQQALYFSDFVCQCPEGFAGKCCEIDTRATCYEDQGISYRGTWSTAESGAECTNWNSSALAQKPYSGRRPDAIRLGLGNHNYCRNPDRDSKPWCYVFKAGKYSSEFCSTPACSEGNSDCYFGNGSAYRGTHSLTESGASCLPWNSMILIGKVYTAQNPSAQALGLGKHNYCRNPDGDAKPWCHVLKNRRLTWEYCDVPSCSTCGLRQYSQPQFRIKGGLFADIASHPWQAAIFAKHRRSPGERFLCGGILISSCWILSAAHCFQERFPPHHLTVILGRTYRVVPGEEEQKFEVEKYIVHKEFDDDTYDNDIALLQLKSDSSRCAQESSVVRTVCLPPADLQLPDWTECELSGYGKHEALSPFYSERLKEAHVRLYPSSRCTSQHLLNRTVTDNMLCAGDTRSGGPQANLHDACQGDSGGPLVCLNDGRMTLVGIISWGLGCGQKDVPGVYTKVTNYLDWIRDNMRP
Chain of tissue activator obtained from human kidney (P00750 36-562): as above

## vascular plasminogen activator: purified plasminogen activator from human blood vessel walls; single-chain glycoprotein, molecular weight about 70,000
[1]
  crosslinking of precipitation curves / with antiserum in immunodiffusion: no crosslinking was observed
Fibrin [2]; Table 1, purification stages of tissue plasminogen activator from blood vessels
  Specific activity: 57,400 UKIU/mg
Fibrin [2]; blood vessel derived, after final purification
  specific activity of the final plasminogen activator: 45,000-80,000 IU/mg proteins
[3]
  isoelectric point (pI) of the main band: 7.8
anti-urokinase IgG
  adsorption / affinity for anti-urokinase IgG-Sepharose: did not show any affinity

## NC(=O)CI [iodoacetamide]
[4]; [12]
  inhibition of amide-decomposing activity against S-2288: not inhibited
[5]; [13]
  activity inhibition of the vascular plasminogen activator: no changes

## Aprotinin [Trasylol]
[4]; [12]
  inhibition of amide-decomposing activity against S-2288: not inhibited
[5]; [13]
  activity inhibition of the vascular plasminogen activator: no changes

## N=C(N)NCCC[C@H](N)C(=O)O [L-arginine]
[4]; read-out: inhibition of amide-decomposing activity against S-2288
  inhibition at 100000 µM: ≤ 26%
[5]; read-out: activity inhibition of the vascular plasminogen activator
  inhibition at 50 µg/mL: 20%

## kidney-originated activator: purified tissue plasminogen activator obtained from human kidney in Example 1-(6); molecular weight about 72,000
[1]
  crosslinking of precipitation curves / with antiserum in immunodiffusion: ready crosslinking reaction
Fibrin [2]; Table 2, purification stages of tissue plasminogen activator obtained from kidneys
  Specific activity: 25,700 UKIU/mg
Fibrin [2]; highly purified form
  specific activity relative to human kidney dried with acetone: 30,000-45,000 times
[3]
  isoelectric point (pI) of the main band: 8.2
[6]
  adsorption onto fibrin-Sepharose column: adsorbed completely
  total poured activity recovered by elution with 2M NH4 SCN from fibrin-Sepharose: at least 90%
[7]
  hydrolytic activity against S-2288: 70 ΔmA/min
[8]
  hydrolytic activity against S-2251: 88 ΔmA/min
anti-urokinase IgG
  adsorption / affinity for anti-urokinase IgG-Sepharose: passed through the column without adsorption
[9]; 4° C., 24 hours, buffer containing 0.5M NaCl and 0.02% Tween 80, pH 1-10 tested
  pH range in which the activator was stable: 2-10
[9]; 4° C., buffer solution of pH 7.4, 2 weeks
  activity after storage: did not give any activity reduction
[9]; pH 1.0, 4° C., 24 hours, 0.5M NaCl and 0.02% Tween 80
  reduction of activity: 70%
[10]
  hydrolytic activity to substrates other than S-2251 and S-2288: did not show hydrolytic activity

## urokinase [reference compound]
Fibrin [2]; 10 μl of a 1 IU/ml solution
  lytic area on fibrin-agar plate: 156 mm^2
[6]
  adsorption onto fibrin-Sepharose column: passed through the column
anti-urokinase IgG
  adsorption / affinity for anti-urokinase IgG-Sepharose: adsorbed strongly
Fibrin [11]
  specific activity of high-purity human urokinase used as immunogen: 202,400 IU/mg

B1: soybean trypsin inhibitor: soybean trypsin inhibitor used as protease inhibitor (protein, UniProt P01070 25-205, looked up)
Trypsin inhibitor A: DFVLDNEGNPLENGGTYYILSDITAFGGIRAAPTGNERCPLTVVQSRNELDKGIGTIISSPYRIRFIAEGHPLSLKFDSFAVIMLCVGIPTEWSVVEDLPEGPAVKIGENKDAMDGWFRLERVSDDEFNNYKLVFCPQQAEDDKCGDIGISIDHDDGTRRLVVSKNKPLVVQFQKLDKESL
[4]
  inhibition of amide-decomposing activity against S-2288: not inhibited
[5]
  activity inhibition of the vascular plasminogen activator: no changes
